The values that follow come from US20070148090A1, “Per (3,6-anhydro) cyclodextrin derivatives, preparation thereof and use thereof for transporting metal elements to biological targets or for decontaminating biological targets of fluids” (priority 2003, published 2007).

Test [1] is described as follows: complexation of lead on ion-loaded thin layer chromatography plates (1/Rf). Format: binding. The conditions noted are these: Polygram Ionex 25-SA-Na plates loaded with Pb^2+, developed four times in water; FIG. 4. An excerpt:
(§1) To evaluate the complexation, ion-loaded thin layer chromatography plates which allow rapid evaluation of the complexation of these ions by the species to be evaluated are used. In the present case, plates of Polygram Ionex 25-SA-Na type (Macherey-Nagel, ref: 80613) loaded with various counterions were used. In each test, the compound to be tested is introduced onto the plate, and if the compound complexes the ions, they will be retained on the plate. The plates are then developed four times in water, because of the small amount of migration of the cyclodextrin derivatives, and then the degree of complexation is determined through the value 1/Rf, where Rf represents the ratio: (distance covered by the cyclodextrin derivative/distance covered by the solvent).
(§2) Measurements of degree of complexation of lead (in the form Pb^2+) and of erbium in the form (Er^3+) were carried out for the following three compounds: • the base cyclodextrin mono-2-O-carboxyméthyle-per-(3,6-anhydro)cyclomaltohexaose (designated (1) in FIG. 4); • a cyclodextrin in accordance with the invention, prepared in the context of Example 1 (denoted (2) in FIG. 4); • a cyclodextrin in accordance with the invention, prepared in the context of Example 2 (denoted (3) in FIG. 4).

Test [2] in a line: complexation of erbium on ion-loaded thin layer chromatography plates (1/Rf). Format: binding. As to conditions: Polygram Ionex 25-SA-Na plates loaded with Er^3+, developed four times in water; FIG. 4.
Excerpt: as §1, §2

“Also recorded” adds a separate entry of the source.

“[(mono-2-O-methyl(mono-ε-amidopoly-L-Lysine)]-per-(3,6-anhydro)-α-cyclodextrin [Example 2]”: the “lead-complexation properties (degree of complexation, 1/Rf)” value in test [1] is recorded as “particularly advantageous”. In addition, in test [2], the “erbium-complexation properties (degree of complexation, 1/Rf)” value is “particularly advantageous; also recorded: complex erbium”. Regarding “mono-2-O-carboxymethyl-per-(3,6-anhydro)cyclomaltohexaose [noncoupled per(3,6-anhydro)cyclodextrin, reference compound]”, in test [2], the “erbium-complexation properties (degree of complexation, 1/Rf)” value is “does not complex erbium”.
